Legend:
Assay in all cases: MIC, broth microdilution (NCCLS)
[1] = test system: Enterococcus faecalis Enfa_bc 11148-2; type: cell-based; conditions: in µg/mL (unit assumed); for MIC: Table 10, Strain ID F (Table 8): Enterococcus faecalis Enfa_bc 11148-2
How it was run: (§1)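 Broth microdilution per NCCLS in cation-adjusted Mueller-Hinton broth, or Haemophilus Test Medium for H. influenzae, with 2-fold serial drug dilutions and 3×10^5–7×10^5 CFU/ml inoculum. Trays incubated 18-24 hours at 35° C (H. influenzae in 5-10% CO2). MIC = lowest concentration preventing visible growth.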

[2] = test system: Haemophilus influenzae Hain_2762; type: cell-based; conditions: in µg/mL (unit assumed); for MIC: Table 10, Strain ID L (Table 8): Haemophilus influenzae Hain_2762
How it was run: as §1

[3] = test system: Haemophilus influenzae Hain_953460299-3; type: cell-based; conditions: in µg/mL (unit assumed); for MIC: Table 10, Strain ID K (Table 8): Haemophilus influenzae Hain_953460299-3
How it was run: as §1

[4] = test system: Haemophilus influenzae Hain_960730503-3; type: cell-based; conditions: in µg/mL (unit assumed); for MIC: Table 10, Strain ID I (Table 8): Haemophilus influenzae Hain_960730503-3
How it was run: as §1

[5] = test system: Haemophilus influenzae Hain_960820544-3; type: cell-based; conditions: in µg/mL (unit assumed); for MIC: Table 10, Strain ID J (Table 8): Haemophilus influenzae Hain_960820544-3
How it was run: as §1

[6] = test system: Staphylococcus aureus Stau_33591; type: cell-based; conditions: unit assumed; for MIC: Table 10, Strain ID B (Table 8): Staphylococcus aureus Stau_33591
How it was run: as §1

[7] = test system: S. pneumoniae Stpn_Erm 6849; type: cell-based, Streptococcus pneumoniae; conditions: strain ID P; broth microdilution; in µg/mL (unit assumed)
How it was run: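 Lowest drug concentration giving no visible growth after 18-24 hours at 35° C. under 5-10% CO2 was taken as MIC. Twofold serial dilutions in CAMHB plus 2-5% lysed horse blood, final inoculum 3×10^5–7×10^5 CFU/ml, per NCCLS microdilution.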

[8] = test system: Streptococcus pneumoniae Stpn_Mef 5654; type: cell-based; parameters: MIC, strain ID R: unit not given beside the values; conditions: for MIC: Table 10, Strain ID P (Table 8): Streptococcus pneumoniae Stpn_Mef 5654, in µg/mL (unit assumed)
How it was run: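 Broth microdilution per NCCLS in cation-adjusted Mueller-Hinton broth, with 2-5% lysed horse blood added for S. pneumoniae. Inoculum 3×10^5–7×10^5 CFU/ml, 2-fold drug dilutions, 18-24 h at 35° C; S. pneumoniae under 5-10% CO2, others ambient air. MIC = lowest concentration preventing visible growth.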

CC[C@H]1OC(=O)[C@H](C)C(=O)[C@H](C)[C@@H](O[C@@H]2O[C@H](C)C[C@H](N(C)C)[C@H]2O)[C@](C)(OC)C[C@@H](C)C(=O)[C@H](C)[C@H]2N(CCCCn3cnc(-c4cccnc4)c3)C(=O)O[C@]12C [Telithromycin, telithromycin, reference compound]
MIC [1]: 0.4-0.78
MIC, strain ID F ([1]; strain ID F, broth microdilution): 0.4-0.78
MIC [2]: 0.78-1.56
MIC, strain ID L ([2]; strain ID L, broth microdilution): 0.78-1.56
MIC [3]: 3.13-6.25
MIC, strain ID K ([3]; strain ID K, broth microdilution): 3.13-6.25
MIC [4]: 3.13-6.25
MIC, strain ID I ([4]; strain ID I, broth microdilution): 3.13-6.25
MIC [5]: 3.13-6.25
MIC, strain ID J ([5]; strain ID J, broth microdilution): 3.13-6.25
MIC [6]: > 50 µg/mL
MIC, strain ID B ([6]; strain ID B, broth microdilution): > 50 µg/mL
MIC, strain ID P [7]: 0.2-0.78
MIC [8]: 0.2-0.78
MIC, strain ID R ([8]; strain ID R, broth microdilution): =0.1

CC[C@H]1OC(=O)[C@@](C)(F)C(=O)[C@H](C)[C@@H](OC2O[C@H](C)C[C@H](N(C)C)[C@H]2O)[C@@](C)(OC)C[C@@H](C)C(=O)[C@H](C)[C@H]2N(CCCCn3cnc(-c4ccc(C)nc4)c3)C(=O)O[C@]12CC (stereo partly drawn) [XIV]
MIC [1]: 1.56
MIC [2]: 1.56
MIC [3]: 6.25
MIC [4]: 6.25
MIC [5]: 6.25
MIC [6]: > 50 µg/mL
MIC [8]: 0.78

C=C[C@]12OC(=O)N(CCCCn3cnc(-c4ccc(OC)nc4)c3)[C@@H]1[C@@H](C)C(=O)[C@H](C)C[C@](C)(OC)[C@H](OC1O[C@H](C)C[C@H](N(C)C)[C@H]1O)[C@@H](C)C(=O)[C@@H](C)C(=O)O[C@@H]2CC (stereo partly drawn) [XVIII]
MIC [1]: 0.78
MIC [2]: 1.56
MIC [3]: 6.25
MIC [4]: 6.25
MIC [5]: 6.25
MIC [6]: > 50 µg/mL
MIC [8]: 0.78

C=C[C@]12OC(=O)N(CCCCn3cnc(-c4ccc(C)nc4)c3)[C@@H]1[C@@H](C)C(=O)[C@H](C)C[C@](C)(OC)[C@H](OC1O[C@H](C)C[C@H](N(C)C)[C@H]1O)[C@@H](C)C(=O)[C@@H](C)C(=O)O[C@@H]2CC (stereo partly drawn) [XVI]
MIC [1]: 0.78
MIC [2]: 1.56
MIC [3]: 6.25
MIC [4]: 6.25
MIC [5]: 6.25
MIC [6]: > 50 µg/mL
MIC [8]: 0.78
